Results reported in US20090099177A1, “PYRIDYL COMPOUNDS” (priority 2006, published 2009).
Where a name gives a salt, the structure may show the parent alone.

These compounds were tested against T1, human prostanoid EP1 receptor (Homo sapiens, UniProt P34995) (assay: Binding assay for the human prostanoid EP1 receptor (competition with [3H]-PGE2)). Conditions: [3H]-PGE2 competition, human EP1, CHO-K1 membranes; averages of a number of experiments; read-out: pIC50 value (converted).
T1 construct: expressed in transfected cells; host or cells: CHO-K1 (membrane fraction)
T1 sequence (P34995 1-402): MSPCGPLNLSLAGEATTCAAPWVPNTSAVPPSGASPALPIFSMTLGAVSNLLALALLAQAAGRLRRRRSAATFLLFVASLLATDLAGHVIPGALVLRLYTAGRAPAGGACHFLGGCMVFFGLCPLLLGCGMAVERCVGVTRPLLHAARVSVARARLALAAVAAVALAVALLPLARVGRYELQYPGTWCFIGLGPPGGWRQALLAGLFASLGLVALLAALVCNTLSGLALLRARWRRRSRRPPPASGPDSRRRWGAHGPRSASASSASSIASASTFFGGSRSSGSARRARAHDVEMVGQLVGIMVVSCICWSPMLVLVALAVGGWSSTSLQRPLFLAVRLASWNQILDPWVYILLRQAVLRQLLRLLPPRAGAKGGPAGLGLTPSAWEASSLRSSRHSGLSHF
Protocol: Competition assay using [^3H]-PGE2.
Compound potencies are determined using a radioligand binding assay. In this assay compound potencies are determined from their ability to compete with tritiated prostaglandin E2 ([^3H]-PGE2) for binding to the human EP1 receptor.
This assay utilises Chinese hamster ovary-K1 (CHO-K1) cells into which a stable vector containing the EP1 cDNA has previously been transfected. Cells are cultured in suitable flasks containing culture medium such as DMEM:F-12 supplemented with 10% v/v foetal calf serum, 2 mM L-glutamine, 0.25 mg/ml geneticin, 10 μg/ml puromycin and 10 μM indomethacin.
Cells are detached from the culture flasks by incubation in calcium and magnesium free phosphate buffered saline containing 1 mM disodium ethylenediaminetetraacetic acid (Na2EDTA) and 10 μM indomethacin for 5 min. The cells are isolated by centrifugation at 250×g for 5mins and suspended in an ice cold buffer such as 50 mM Tris, 1 mM Na2EDTA, 140 mM NaCl, 10 μM indomethacin (pH 7.4). The cells are homogenised using a Polytron tissue disrupter (2×10 s burst at full setting), centrifuged at 48,000×g for 20mins and the pellet containing the membrane fraction is washed (optional) three times by suspension and centrifugation at 48,000×g for 20mins. The final membrane pellet is suspended in an assay buffer such as 10 mM 2-[N-morpholino]ethanesulphonic acid, 1 mM Na2EDTA, 10 mM MgCl2 (pH 6). Aliquots are frozen at −80° C. until required.
For the binding assay the cell membranes, competing compounds and [^3H]-PGE2 (3 nM final assay concentration) are incubated in a final volume of 100 μl for 30 min at 30° C. All reagents are prepared in assay buffer. Reactions are terminated by rapid vacuum filtration over GF/B filters using a Brandell cell harvester. The filters are washed with ice cold assay buffer, dried and the radioactivity retained on the filters is measured by liquid scintillation counting in Packard TopCount scintillation counter.
The data are analysed using non linear curve fitting techniques to determine the concentration of compound producing 50% inhibition of specific binding (IC50).

IC50 | Compound
≤ 0.1 µM | CN(C)Cc1ccc(NC(=O)c2cccc(Cc3cc(Cl)ccc3OCc3ccc(Cl)cc3F)n2)cc1 [Example 53, 6-[(5-Chloro-2-{[(4-chloro-2-fluorophenyl)methy]oxy}phenyl)methyl]-N-{4-[(dimethylamino)methyl]phenyl}-2-pyridinecarboxamide]
≤ 0.1 µM | CC(C)COc1ccc(Cl)cc1Cc1cccc(-c2ncc[nH]2)n1 [Example 42, 2-({5-Chloro-2-[(2-methylpropyl)oxy]phenyl}methyl)-6-(1H-imidazol-2-yl)pyridine]

More lines, now with the values behind:

Compound | IC50
O=C(Nc1cccc(Cc2cc(Cl)ccc2OCc2ccccc2)n1)C1CCCO1 (stereo not drawn) [Example 17, N-[6-({5-Chloro-2-[(phenylmethyl)oxy]phenyl}methyl)-2-pyridinyl]tetrahydro-2-furancarboxamide] | ≤ 0.1 µM
O=C(Nc1cccc(Cc2cc(Cl)ccc2OCc2ccccc2)n1)C1CCOC1 (stereo not drawn) [Example 18, N-[6-({5-Chloro-2-[(phenylmethyl)oxy]phenyl}methyl)-2-pyridinyl]tetrahydro-3-furancarboxamide] | ≤ 0.1 µM

The compounds below were run against T2, human EP1 receptor (Homo sapiens, UniProt P34995) (assay: human EP1 calcium mobilisation assay). Conditions: human EP1, CHO-K1 cells, antagonism of PGE2; averages of a number of experiments; read-out: functional pKi value (converted).
T2 construct: expressed in transfected cells; host or cells: CHO-K1
T2 sequence (P34995 1-402): T1 sequence (P34995 1-402)
Type: cell-based
Protocol: Briefly, the antagonist properties of compounds are assessed by their ability to inhibit the mobilisation of intracellular calcium ([Ca^2+]i) in response to activation of EP1 or EP3 receptors by the natural agonist hormone prostaglandin E2 (PGE2). Increasing concentrations of antagonist reduce the amount of calcium that a given concentration of PGE2 can mobilise. The net effect is to displace the PGE2 concentration-effect curve to higher concentrations of PGE2. The amount of calcium produced is assessed using a calcium-sensitive fluorescent dye such as Fluo-4, AM and a suitable instrument such as a Fluorimetric Imaging Plate Reader (FLIPR). Increasing amounts of [Ca^2+]i produced by receptor activation increase the amount of fluorescence produced by the dye and give rise to an increasing signal. The signal may be detected using the FLIPR instrument and the data generated may be analysed with suitable curve-fitting software.
The human EP1 or EP3 calcium mobilisation assay (hereafter referred to as ‘the calcium assay’) utilises Chinese hamster ovary-K1 (CHO-K1) cells into which a stable (pCIN; BioTechniques 20 (1996): 102-110) vector containing either EP1 or EP3 cDNA has previously been transfected. Cells are cultured in suitable flasks containing culture medium such as DMEM:F-12 supplemented with 10% v/v foetal calf serum, 2 mM L-glutamine, 0.25 mg/ml geneticin, 100 μM flurbiprofen and 10 μg/ml puromycin.
For assay, cells are harvested using a proprietary reagent that dislodges cells such as Versene. Cells are re-suspended in a suitable quantity of fresh culture media for introduction into a 384-well plate. Following incubation for 24 hours at 37° C. the culture media is replaced with a medium containing Fluo-4 and the detergent pluronic acid, and a further incubation takes place. Concentrations of compounds are then added to the plate in order to construct concentration-effect curves. This may be performed on the FLIPR in order to assess the agonist properties of the compounds. Concentrations of PGE2 are then added to the plate in order to assess the antagonist properties of the compounds.
The data so generated may be analysed by means of a computerised curve-fitting routine. The concentration of compound that elicits a half-maximal inhibition of the calcium mobilisation induced by PGE2 (pIC50) may then be estimated.

Ki | Compound
≤ 10 µM | CC(C)COc1ccc(Cl)cc1Cc1cccc(NC(=O)c2ccc(CN3CCCCC3)cc2)n1 [Example 47, N-[6-({5-Chloro-2-[(2-methylpropyl)oxy]phenyl}methyl)-2-pyridinyl]-4-(1-piperidinylmethyl)benzamidehydrochloride]
≤ 0.316 µM | CC(C)COc1ccc(Cl)cc1Cc1cccc(NC(=O)c2ccc(CN3CCOCC3)cc2)n1 [Example 45, N-[6-({5-Chloro-2-[(2-methylpropyl)oxy]phenyl}methyl)-2-pyridinyl]-4-(4-morpholinylmethyl)benzamide Hydrochloride]
≤ 10 µM | NC(=O)c1cccc(Cc2cc(Cl)ccc2OCc2ccc(Cl)cc2F)n1 [Example 63, 6-[(5-Chloro-2-{[(4-chloro-2-fluorophenyl)methyl]oxy}phenyl)methyl]-2-pyridinecarboxamide]
≤ 10 µM | CC(C)COc1ccc(Cl)cc1Cc1cccc(NC(=O)c2ccc(CN3CCCC3)cc2)n1 [Example 46, N-[6-({5-Chloro-2-[(2-methylpropyl)oxy]phenyl}methyl)-2-pyridinyl]-4-(1-pyrrolidinylmethyl)benzamidehydrochloride]
≤ 10 µM | CC(C)(C)OC(=O)Nc1cccc(Cc2cc(Cl)ccc2OCc2ccc(Cl)cc2F)n1 [Example 60, 1,1-Dimethylethyl {6-[(5-chloro-2-{[(4-chloro-2-fluoronhenyl)methyl]oxy}phenyl)methyl]-2-pyridinyl}carbamate]
≤ 0.316 µM | Clc1ccc(OCc2ccccc2)c(Cc2cccc(-c3nc4cnccc4[nH]3)n2)c1 [Example 38, 2-[6-({5-Chloro-2-[(phenylmethyl)oxy]phenyl}methyl)-2-pyridinyl]-1H-imidazo[4,5-c]pyridinehydrochloride]
≤ 10 µM | CC(C)COc1ccc(Cl)cc1Cc1cccc(-c2nc3ccc(CN4CCCCC4)cc3[nH]2)n1 [Example 50, 2-[6-({5-Chloro-2-[(2-methylpropyl)oxy]phenyl}methyl)-2-pyridinyl]-5-(1-piperidinylmethyl)-1H-benzimidazole hydrochloride]
≤ 10 µM | CC(C)COc1ccc(Cl)cc1Cc1cccc(NC(=O)c2ccc(CN3CCN(C)CC3)cc2)n1 [Example 48]

The next lines start with the compound.

Compound | Ki
CN1CCN(c2ccc3nc(-c4cccc(Cc5cc(Cl)ccc5OCc5ccccc5)n4)[nH]c3c2)CC1 [Example 26, 2-[6-({5-Chloro-2-[(phenylmethyl)oxy]phenyl}methyl)-2-pyridinyl]-5-(4-methyl-1-piperazinyl)-1H-benzimidazole Hydrochloride] | ≤ 10 µM
O=C(NCc1ccccn1)c1cccc(Cc2cc(Cl)ccc2OCc2ccccc2)n1 [Example 7, 6-({5-Chloro-2-[(phenylmethyl)oxy]phenyl}methyl)-N-(2-pyridinylmethyl)-2-pyridinecarboxamide] | ≤ 0.316 µM
O=C(Cc1ccccc1)Nc1cccc(Cc2cc(Cl)ccc2OCc2ccccc2)n1 [Example 2, N-[6-({5-Chloro-2-[(phenylmethyl)oxy]phenyl}methyl)-2-pyridinyl]-2-phenylacetamide] | ≤ 10 µM
O=C(Nc1cccc(Cc2cc(Cl)ccc2OCc2ccccc2)n1)c1ccccc1 [Example 3, N-[6-({5-Chloro-2-[(phenylmethyl)oxy]phenyl}methyl)-2-pyridinyl]benzamide] | ≤ 0.316 µM
Fc1cccc2[nH]c(-c3cccc(Cc4cc(Cl)ccc4OCc4ccccc4)n3)nc12 [Example 32, 2-[6-({5-Chloro-2-[(phenylmethyl)oxy]phenyl}methyl)-2-pyridinyl]-4-fluoro-1H-benzimidazolehydrochioride] | ≤ 10 µM
CC(C)COc1ccc(Cl)cc1Cc1cccc(-c2nc3cnc4ccccc4c3[nH]2)n1 [Example 24, 2-[6-({5-Chloro-2-[(2-methylpropyl)oxy]phenyl}methyl)-2-pyridinyl]-1H-imidazo[4,5-c]quinoline hydrochloride] | ≤ 0.316 µM

Same assay, conditions: human EP1 calcium mobilisation assay; read-out: pIC50 values (converted)

IC50 | Compound
> 10 µM | Fc1ccc2nc(-c3cccc(Cc4cc(Cl)ccc4OCc4ccccc4)n3)[nH]c2c1F [Example 40, 2-[6-({5-Chloro-2-[(phenylmethyl)oxy]phenyl}methyl)-2-pyridinyl]-4,5-difluoro-1H-benzimidazolehydrochloride]
> 10 µM | Fc1cc2nc(-c3cccc(Cc4cc(Cl)ccc4OCc4ccccc4)n3)[nH]c2cc1F [Example 37, 2-[6-({5-Chloro-2-[(phenylmethyl)oxy]phenyl}methyl)-2-pyridinyl]-5,6-difluoro-1H-benzimidazolehydrochloride]

Further lines, the compound ahead of its results:

Compound | IC50
O=C(Nc1ccccn1)c1cccc(Cc2cc(Cl)ccc2OCc2ccccc2)n1 [Example 6, 6-({5-Chloro-2-[(phenylmethyl)oxy]phenyl}methyl)-N-2-pyridinyl-2-pyridinecarboxamide] | > 10 µM
O=C(NCc1ccccc1)c1cccc(Cc2cc(Cl)ccc2OCc2ccccc2)n1 [Example 11, 6-({5-Chloro-2-[(phenylmethyl)oxy]phenyl}methyl)-N-(phenylmethyl)-2-pyridinecarboxamide] | > 10 µM
O=C(Nc1cccc(Cc2cc(Cl)ccc2OCc2ccccc2)n1)c1cccnc1 [Example 16, N-[6-({5-Chloro-2-[(phenylmethyl)oxy]phenyl}methyl)-2-pyridinyl]-3-pyridinecarboxamide] | > 10 µM
O=C(Nc1ccccc1)c1cccc(Cc2cc(Cl)ccc2OCc2ccccc2)n1 [Example 10, 6-({5-Chloro-2-[(phenylmethyl)oxy]phenyl}methyl)-N-phenyl-2-pyridinecarboxamide] | > 10 µM
